Experiments:
[1] = Drug uptake in stomach of BALB/c nude mouse xenografted with human U-87 MG cells at 0.3 MBq, it by gamma-counting analysis; type: ADME; conditions: other
[2] = Drug uptake in tumor of BALB/c nude mouse xenografted with human U-87 MG cells at 0.3 MBq, iv measured after 0.5 hrs by gamma-counting analysis; type: ADME, organism-based, Neoplasm; conditions: in vivo
[3] = Toxicity in BALB/c nude mouse xenografted with human U-87 MG cells assessed as liver morphological changes at 0.55 MBq, it measured after 2 to 12 days by Hematoxylin-Eosin staining based analysis; type: tissue-based; conditions: other, time 2-12 day
[4] = Anti-tumor activity against human U-87 MG cells xenografted in BALB/c nude mouse assessed as reduction in tumor volume at 0.18 MBq, it measured on day 15 by electronic caliper analysis; type: functional, U-87MG ATCC
[5] = Anti-tumor activity against human U-87 MG cells xenografted in BALB/c nude mouse assessed as median survival time at 0.37 MBq, it (reference value: 16.5 days); type: functional, U-87MG ATCC
[6] = Cytotoxicity against human U-87 MG cells assessed as cell viability at 12 kBq incubated in radioactive medium for 12 hrs followed by incubation in non-radioactive medium for 24 hrs by CCK8 assay; type: functional, U-87MG ATCC; conditions: time 36 hrs
[7] = Cytotoxicity against human U-87 MG cells assessed as cell viability at 92 kBq incubated in radioactive medium for 12 hrs followed by incubation in non-radioactive medium for 24 hrs by CCK8 assay; type: functional, U-87MG ATCC; conditions: time 36 hrs
[8] = Drug uptake in FAP-positive human U-87 MG cells assessed as binding rate measured for 4 hrs; type: ADME, cell-based; conditions: u-87mg atcc
[9] = Drug uptake in FAP-positive human U-87 MG cells assessed as binding rate measured after 10 mins; type: ADME, cell-based; conditions: u-87mg atcc
[10] = Drug uptake in tumor of BALB/c nude mouse xenografted with human U-87 MG cells at 0.3 MBq, it measured after 6 hrs by gamma-counting analysis; type: ADME, Neoplasm; conditions: other
[11] = Anti-tumor activity against human U-87 MG cells xenografted in BALB/c nude mouse assessed as median survival time at 0.55 MBq, it (reference value: 16.5 days); type: functional, U-87MG ATCC
[12] = Drug uptake in stomach of BALB/c nude mouse xenografted with human U-87 MG cells at 0.3 MBq, iv by gamma-counting analysis; type: ADME, organism-based; conditions: in vivo
[13] = Drug uptake in tumor of BALB/c nude mouse xenografted with human U-87 MG cells at 0.3 MBq, iv measured after 2 hrs by gamma-counting analysis; type: ADME, organism-based, Neoplasm; conditions: in vivo
[14] = Ratio of drug level in tumor to muscle in BALB/c nude mouse xenografted with human U-87 MG cells at 0.3 MBq, it measured after 2 hrs by gamma-counting analysis; type: ADME, tissue-based; conditions: other
[15] = Induction of cell cycle arrest in human U-87 MG cells assessed as proportion of cells at G0/G1 phase at 23 kBq incubated in radioactive medium for 12 hrs followed by incubation in non-radioactive medium for 24 hrs by PI staining based flow cytometry (reference value: 69.9 +/-3.76%); type: functional, U-87MG ATCC; conditions: time 36 hrs
[16] = Drug uptake in thyroid of BALB/c nude mouse xenografted with human U-87 MG cells at 0.3 MBq, iv by gamma-counting analysis; type: ADME, organism-based, Thyroid gland; conditions: in vivo
[17] = Inhibition of colony formation in human U-87 MG cells assessed as survival fraction at 9.2 kBq incubated in radioactive medium for 12 hrs followed by incubation in non-radioactive medium for 14 days by crystal violet staining based analysis; type: functional, U-87MG ATCC; conditions: time 852 hrs
[18] = Drug uptake in kidney of BALB/c nude mouse xenografted with human U-87 MG cells at 0.3 MBq, iv measured after 0.5 hrs by gamma-counting analysis; type: ADME, organism-based; conditions: in vivo
[19] = Toxicity in BALB/c nude mouse xenografted with human U-87 MG cells assessed as change in body weight at 0.18 to 0.55 MBq, it; conditions: other, dose 0.18-0.55 MBq
[20] = Anti-tumor activity against human U-87 MG cells xenografted in BALB/c nude mouse assessed as median survival time at 0.18 MBq, it (reference value: 16.5 days); type: functional, U-87MG ATCC
[21] = Drug uptake in liver of BALB/c nude mouse xenografted with human U-87 MG cells at 0.3 MBq, iv measured after 0.5 hrs by gamma-counting analysis; type: ADME, organism-based; conditions: in vivo
[22] = Toxicity in BALB/c nude mouse xenografted with human U-87 MG cells assessed as stomach morphological changes at 0.55 MBq, it measured after 2 to 12 days by Hematoxylin-Eosin staining based analysis; type: tissue-based; conditions: other, time 2-12 day
[23] = Antitumor activity against human U-87 MG cells xenografted in BALB/c nude mouse assessed as proportion of TUNEL-positive cells in tumor at 0.55 MBq, it measured after 2 days by immunohistochemical analysis (reference value: 3.54 +/-2.71%); type: functional, U-87MG ATCC; conditions: time 2 day
[24] = Drug uptake in tumor of BALB/c nude mouse xenografted with human U-87 MG cells at 0.3 MBq, iv measured after 6 hrs by gamma-counting analysis; type: ADME, organism-based, Neoplasm; conditions: in vivo
[25] = Ratio of drug level in tumor to kidney in BALB/c nude mouse xenografted with human U-87 MG cells at 0.3 MBq, it measured after 2 hrs by gamma-counting analysis; type: ADME, tissue-based; conditions: other
[26] = Renal toxicity BALB/c nude mouse xenografted with human U-87 MG cells assessed as change in BUN level at 0.55 MBq, it measured after 2 to 12 days; conditions: other, time 2-12 day
[27] = Drug uptake in thyroid of BALB/c nude mouse xenografted with human U-87 MG cells at 0.3 MBq, it by gamma-counting analysis; type: ADME, tissue-based, Thyroid gland; conditions: other
[28] = Drug uptake in FAP-positive human U-87 MG cells assessed as binding rate pretreated with excess standard products measured after 60 mins; type: ADME, cell-based; conditions: u-87mg atcc, 1 h
[29] = Ratio of drug level in tumor to blood in BALB/c nude mouse xenografted with human U-87 MG cells at 0.3 MBq, it measured after 2 hrs by gamma-counting analysis; type: ADME, tissue-based; conditions: other
[30] = Hepatotoxicity BALB/c nude mouse xenografted with human U-87 MG cells assessed as change in serum ALT level at 0.55 MBq, it measured after 2 to 12 days; type: toxicity; conditions: other, time 2-12 day
[31] = Toxicity in BALB/c nude mouse xenografted with human U-87 MG cells assessed as kidney morphological changes at 0.55 MBq, it measured after 2 to 12 days by Hematoxylin-Eosin staining based analysis; type: tissue-based; conditions: other, time 2-12 day
[32] = Drug uptake in FAP-positive human U-87 MG cells assessed as binding rate measured after 60 mins; type: ADME, cell-based; conditions: u-87mg atcc, 1 h
[33] = Induction of cell cycle arrest in human U-87 MG cells assessed as proportion of cells at G2/M phase at 23 kBq incubated in radioactive medium for 12 hrs followed by incubation in non-radioactive medium for 24 hrs by PI staining based flow cytometry (reference value: 15.7 +/-3.61%); type: functional, U-87MG ATCC; conditions: time 36 hrs
[34] = Inhibition of colony formation in human U-87 MG cells assessed as survival fraction at 4.6 kBq incubated in radioactive medium for 12 hrs followed by incubation in non-radioactive medium for 14 days by crystal violet staining based analysis; type: functional, U-87MG ATCC; conditions: time 852 hrs
[35] = Stability of the compound in serum (unknown origin) measured after 24 hrs by iTLC analysis; type: ADME, cell-free; conditions: read-out: Stability
[36] = Drug uptake in FAP-negative human MCF7 cells assessed as binding rate measured after 10 to 240 mins; type: ADME, cell-based; conditions: time 10-240 min
[37] = Drug uptake in tumor of BALB/c nude mouse xenografted with human U-87 MG cells at 0.3 MBq, it measured after 2 hrs by gamma-counting analysis; type: ADME, tissue-based, Neoplasm; conditions: other
[38] = Ratio of drug level in tumor to liver in BALB/c nude mouse xenografted with human U-87 MG cells at 0.3 MBq, it measured after 2 hrs by gamma-counting analysis; type: ADME, tissue-based; conditions: other
[39] = Drug uptake in liver of BALB/c nude mouse xenografted with human U-87 MG cells at 0.3 MBq, it measured after 0.5 hrs by gamma-counting analysis; type: ADME, tissue-based; conditions: other
[40] = Anti-tumor activity against human U-87 MG cells xenografted in BALB/c nude mouse assessed as reduction in tumor volume at 0.55 MBq, it measured on day 15 by electronic caliper analysis; type: functional, U-87MG ATCC; conditions: time 15 day
[41] = Toxicity in BALB/c nude mouse xenografted with human U-87 MG cells assessed as thyroid morphological changes at 0.55 MBq, it measured after 2 to 12 days by Hematoxylin-Eosin staining based analysis; conditions: other, time 2-12 day
[42] = Anti-tumor activity against human U-87 MG cells xenografted in BALB/c nude mouse assessed as reduction in tumor volume at 0.37 MBq, it measured on day 15 by electronic caliper analysis; type: functional, U-87MG ATCC
[43] = Inhibition of colony formation in human U-87 MG cells assessed as survival fraction at 18.5 kBq incubated in radioactive medium for 12 hrs followed by incubation in non-radioactive medium for 14 days by crystal violet staining based analysis; type: functional, U-87MG ATCC
[44] = Drug uptake in kidney of BALB/c nude mouse xenografted with human U-87 MG cells at 0.3 MBq, it measured after 0.5 hrs by gamma-counting analysis; type: ADME, tissue-based; conditions: other
[45] = Drug uptake in tumor of BALB/c nude mouse xenografted with human U-87 MG cells at 0.3 MBq, it measured after 0.5 hrs by gamma-counting analysis; type: ADME, tissue-based, Neoplasm; conditions: other
[46] = Stability of the compound in saline measured after 24 hrs by iTLC analysis; type: physicochemical; conditions: read-out: Stability
[47] = Antitumor activity against human U-87 MG cells xenografted in BALB/c nude mouse assessed as proportion of TUNEL-positive cells in tumor at 0.55 MBq, it measured after 12 days by immunohistochemical analysis (reference value: 3.31 +/-1.13%); type: functional, U-87MG ATCC; conditions: time 12 day
[48] = Antitumor activity against human U-87 MG cells xenografted in BALB/c nude mouse assessed as Ki67 expression in tumor at 0.55 MBq, it measured after 2 days by immunohistochemical analysis (reference value: 49.8 +/-7.67%); type: functional, U-87MG ATCC; conditions: time 2 day

N#C[C@@H]1CC(F)(F)CN1C(=O)CNC(=O)c1ccnc2ccc(OCCCN3CCN(C(=O)c4ccc([211At])cc4)CC3)cc12
Drug uptake [1]: Active | Drug uptake [2]: 4.04 % ID/g | Activity [3]: Non-Toxic | inhibition (INH) [4]: 55% | Survival [5]: 30 days | Activity [6]: 61.9% | Activity [7]: 42.1% | Drug uptake [8]: Active | Drug uptake [9]: 14.4% | Drug uptake [10]: 11.47 % ID/g | Survival [11]: 33 days | Drug uptake [12]: Active | Drug uptake [13]: 3.12 % ID/g | Ratio [14]: 45.75 | Activity [15]: 21.9% | Drug uptake [16]: Active | Activity [17]: 8.1% | Drug uptake [18]: Active | Activity [19]: Non-Toxic | Survival [20]: 24 days | Drug uptake [21]: Active | Activity [22]: Non-Toxic | Activity [23]: 28.7% | Drug uptake [24]: 1.86 % ID/g | Ratio [25]: 6.39 | Activity [26]: Non-Toxic | Drug uptake [27]: Active | Drug uptake [28]: 9.3% | Ratio [29]: 14.17 | Activity [30]: Non-Toxic | Activity [31]: Non-Toxic | Drug uptake [32]: 24.9% | Activity [33]: 62.7% | Activity [34]: 28.1% | remaining at 24 h [35]: 85.6% | Drug uptake [36]: 4.7% | Drug uptake [37]: 19.24 % ID/g | Ratio [38]: 11.13 | Drug uptake [39]: Active | inhibition (INH) [40]: 76% | Activity [41]: Non-Toxic | inhibition (INH) [42]: 70% | Activity [43]: 1.97% | Drug uptake [44]: Active | Drug uptake [45]: 132.5 % ID/g | remaining at 24 h [46]: 94.7% | Activity [47]: 28.5% | Activity [48]: 17.9%

Reference: ChEMBL document CHEMBL5126522, “In vitro and in vivo evaluation of 211At-labeled fibroblast activation protein inhibitor for glioma treatment” (Bioorg Med Chem, 2022)
